Results reported in patent US20140073631A1 (priority 2012, published 2014).
pIC50: −log10 of the molar value. Converted amounts (≈) assume the structure as drawn. “Also recorded” adds a separate entry of the source. Where two headings read alike, the source gives them in different places.

What was measured:
Burkholderia mallei = experiment: microbe, parasite or virus in culture; assay type: cell-based; details: Burkholderia mallei
Bacillus anthracis = experiment: microbe, parasite or virus in culture; assay type: cell-based; details: Bacillus anthracis
B. mallei = experiment: microbe, parasite or virus in culture; assay type: cell-based; details: Burkholderia mallei, read-out: MIC B. mallei
Vero Cells = experiment: Cytotoxicity Assay, CellTiter-Glo Luminescent Cell Viability Assay
P. aeruginosa = experiment: microbe, parasite or virus in culture; assay type: cell-based; details: Pseudomonas aeruginosa, read-out: MIC P. aeruginosa
[1] = mouse, in vivo
H37Rv Colorado strain [2] = experiment: TB MIC Testing (Table 9); assay type: cell-based; details: Mycobacterium tuberculosis, read-out: MIC Value, Standard Test Strain H27Rv
Y. pestis C092 = assay type: in vivo, BALB/c mice
F. tularensis = experiment: microbe, parasite or virus in culture; assay type: cell-based; details: Francisella tularensis, read-out: MIC F. tularensis (Original Test)
Francisella tularensis = experiment: microbe, parasite or virus in culture; assay type: cell-based; details: Francisella tularensis
E. coli = experiment: microbe, parasite or virus in culture; assay type: cell-based; details: Escherichia coli, read-out: MIC E. coli
B. pseudomallei = experiment: microbe, parasite or virus in culture; assay type: cell-based; details: Burkholderia pseudomallei, read-out: MIC B. pseudomallei
H37Rv Colorado strain [3] = experiment: MBC Determination with H37Rv Colorado strain (Table 9); assay type: cell-based; details: Mycobacterium tuberculosis; Performed with H37Rv
F. tularensis SCHU S4 = system: F. tularensis SCHU S4; set-up: species or system BALB/c mice; details: mouse, in vivo
Yersinia pestis = experiment: microbe, parasite or virus in culture; assay type: cell-based; details: Yersinia pestis
TB = experiment: DMID TB MIC Results (Table 10); assay type: cell-based; details: Mycobacterium tuberculosis; solvent DMSO
B. anthracis = experiment: microbe, parasite or virus in culture; assay type: cell-based; details: Bacillus anthracis, read-out: MIC B. anthracis
Plasmodium falciparum = experiment: Anti-malaria testing; assay type: cell-based
Y. pestis = experiment: microbe, parasite or virus in culture; assay type: cell-based; details: Yersinia pestis, read-out: MIC Y. pestis
[4] = average of Test 1 and Test 2, read-out: Average IC50

Row | Compound | MIC90 (Burkholderia mallei) | MIC90 (Bacillus anthracis) | MIC (B. mallei) | % Viability (Vero Cells; 0.01 μg/ml) | % Viability (Vero Cells; 0.02 μg/ml) | % Viability (Vero Cells; 5 μg/ml) | % Viability (Vero Cells; 10 μg/ml) | % Viability (Vero Cells; 20 μg/ml, vs […] DMSO controls) | MIC (P. aeruginosa) | MIC (H37Rv Colorado strain [2]) | MIC (F. tularensis) | MIC90 (Francisella tularensis) | MIC (E. coli) | MIC (B. pseudomallei) | MBC (H37Rv Colorado strain [3]) | MIC90 (Yersinia pestis) | IC50 (TB) | IC90 (TB) | MIC (TB) | MIC (B. anthracis) | other results
1 | C[C@@H]1COc2c(N3CCN(C(=N)NC(=N)N4CCN(c5c(F)cc6c(=O)c(C(=O)O)cn7c6c5OC[C@@H]7C)CC4)CC3)c(F)cc3c(=O)c(C(=O)O)cn1c23 [BVS-76D (XVII)] | < 4 µg/mL | ≤ 0.25 µg/mL | 1 µg/mL (≈ 1.31 µM) | 119% | 105% | 113% | 100% | 96% | 0.25 µg/mL (≈ 0.328 µM) | 0.312 to 0.625 µg/mL (≈ 0.41 to 0.82 µM) | < 0.06 µg/mL | < 4 µg/mL | < 0.06 µg/mL | 2 to 4 µg/mL (≈ 2.63 to 5.25 µM) | 0.625 µg/mL (≈ 0.82 µM) | < 4 µg/mL | 1.1 µg/mL (≈ 1.44 µM) | 1.19 µg/mL (≈ 1.56 µM) | 1.25 µg/mL (≈ 1.64 µM) | < 0.06 µg/mL | symptoms in treated animals incl. unchallenged toxicity group [1]: some inflammation in the urinary, vaginal and rectal areas; survival (Y. pestis C092; 21 days): 100%; protection of infected mice (Y. pestis C092; mouse, in vivo, 5 mg/kg/day): complete protection; life span of the mice (average) (F. tularensis SCHU S4): 10 days; outcome by day 13 (F. tularensis SCHU S4): all the mice in test Groups 3, 4 and 5 were dead; protection of infected mice (F. tularensis SCHU S4): partial protection; also recorded: not significantly effective; pIC50 (Plasmodium falciparum; [4]): 5.56; pIC50 (Plasmodium falciparum; read-out: IC50 Test 1): 5.40; pIC50 (Plasmodium falciparum; read-out: IC50 Test 2): 5.84; MIC (Y. pestis): < 0.06 µg/mL
2 | CC1COc2c(N3CCN(C(=N)NC#N)CC3)c(F)cc3c(=O)c(C(=O)O)cn1c23 (centres unmarked) [BVS-60C (XVII)] | < 4 µg/mL | ≤ 0.25 µg/mL | 1 µg/mL (≈ 2.41 µM) | 93% | 95% | 92% | 88% | 96% | 2 µg/mL (≈ 4.83 µM) | 0.312 µg/mL (≈ 0.753 µM) | < 0.06 µg/mL | < 4 µg/mL | 0.06 to 0.12 µg/mL (≈ 0.145 to 0.29 µM) | 1 to 2 µg/mL (≈ 2.41 to 4.83 µM) | 0.625 µg/mL (≈ 1.51 µM) | < 4 µg/mL | 0.22 µg/mL (≈ 0.531 µM) | 0.23 µg/mL (≈ 0.555 µM) | 0.312 µg/mL (≈ 0.753 µM) | < 0.06 µg/mL | pIC50 (Plasmodium falciparum; [4]): 5.21; pIC50 (Plasmodium falciparum; read-out: IC50 Test 1): 5.21; MIC (Y. pestis): 0.06 µg/mL (≈ 0.145 µM)
